Data set [1] is described as follows: Storage of Compound 1 forms and amorphous salts at 25° C./60% RH for 14 days (HPLC, XRPD, observation). The note with it: for Physical/chemical stability and appearance on storage: 25° C./60% RH, 14 days. As for the experimental part:
This initial characterization was followed by storage at 25° C./60% relative humidity (RH) for 14 days with analysis by […] and XRPD after 7 and 14 days. FIG. 4A is the XRPD after 14 days at 25° C./60% (RH).
The samples were then frozen with the solvent removed by lyophilization.
The samples were then subjected to storage at 25° C./60% relative humidity (RH) for 14 days with analysis by HPLC and XRPD after 7 (FIG. 4B) and 14 days (FIG. 5A).

A short description of data set [2]: Single ascending dose study of Compound 2 in healthy volunteers (Part A): safety, tolerability, pharmacokinetic. It counts as in vivo, human. As to conditions: both sexes, human, plasma, oral; for concentration at 24 h: read-out: C24h. As for the experimental part:
Compound 2 was tested in a single ascending dose (SAD) study to measure its safety, tolerability, and pharmacokinetic in healthy subjects (Part A). Part A was a randomized, double-blind, placebo-controlled SAD study. Healthy subjects in Part A received a single dose of Compound 2 or placebo in the fasting state. Subjects were confined to the clinic from Day −1 to Day 6.
Dosing in each cohort was staggered such that 2 subjects (1 active:1 placebo) were evaluated for 48 hours after dosing before the remainder of the cohort was dosed. Each cohort received Compound 2 in ascending order. Dosing of sequential cohorts occurred based on review of available safety data (through Day 5) and plasma pharmacokinetic data (through 24 h) of the prior cohort.
As pharmacokinetic and safety data emerged from prior cohorts, doses evaluated in Cohorts 3a-4a were adjusted by increments no more than 100 mg.
Healthy volunteers in the Part A portion of the study were male and female subjects between the ages of 18 and 65. Active and placebo recipients were pooled within each Part A cohort to preserve the study blind.
(§1) Pharmacokinetic of Compound 1 and nucleoside metabolite 1-7 were measured following the single dose of Compound 2. […] Values are reported as mean±SD, except or Tmax where median (range) is reported.

Data set [3] in a line: Single ascending dose study of Compound 2 in GT1-HCV infected patients (Part B): safety, tolerability, pharmacokinetic. It counts as in vivo, human. The note with it: human; for Cmax / AUC / half-life / Tmax: in vivo; for Cmax / AUC / half-life / concentration at 24 h: GT1-HCV infected patients, mean±SD; for concentration at 24 h: plasma, oral, read-out: C24h. As to the method: Subjects in Part B received a single dose of Compound 2 in the fasting state. Patients were confined to the clinic from Day −1 to Day 6.
Part B was initiated after the safety (through Day 5) and plasma pharmacokinetic (through 24 h) data review from Cohort 3a in Part A. Available safety data (through Day 5) and pharmacokinetic data (through 24 h) was reviewed for the first cohort in Part B (Cohort 1b) before enrolling subsequent Part B cohorts. Subsequent Part B cohorts were only dosed following review of available safety and pharmacokinetic data from the respective doses in Part A as well as available safety (through Day 5) from the prior Part B cohorts.
Patients infected with HCV were treatment-naïve, non-cirrhotic GT1-infected subjects with a viral load of ≥5 log10 IU/mL.
as §1
Plasma exposure of Compound 1 was dose-related while exposure of metabolite 1-7 was dose-proportional.

Data set [4] can be described thus: Plasma profiles of Compound 2 metabolites in monkeys. The class given is in vivo, cynomolgus monkeys. As to conditions: cynomolgus monkey, plasma, po.
Data set [5] can be described thus: Plasma profiles of Compound 2 metabolites in rats. As to conditions: male, Sprague-Dawley, rat, plasma, po, 500 mg/kg. As to the method: The results for a single 500 mg/kg dose in rats is shown in FIG. 17 and the results for a single 30, 100, or 300 mg/kg dose in monkeys is shown in FIG. 18.
Setting [6] is: 100 mg, Compound 2 100 mg, based on 24-hr profile.
Where [7] appears, read: 300 mg, Compound 2 300 mg (first 300 mg line).
Where [8] appears, read: 300 mg, Compound 2 300 mg (first 300 mg line), based on 24-hr profile.
Setting [9] is: 300 mg, Compound 2 300 mg (second 300 mg line).

Structures are written as SMILES. “Also recorded” adds a separate entry of the source. Where a name gives a salt, the structure may show the parent alone. Read-outs that look alike come from different tables or passages of the source.

As for `CNc1nc(N)nc2c1ncn2C1OC(COP(=O)(NC(C)C(=O)OC(C)C)Oc2ccccc2)C(O)C1(C)F.CNc1nc(N)nc2c1ncn2C1OC(COP(=O)(NC(C)C(=O)OC(C)C)Oc2ccccc2)C(O)C1(C)F.O=S(=O)(O)O` (stereo not drawn) [Sample 1-9], the HPLC purity in data set [1] (0 days at 25° C./60% RH) worked out at 98.7; in data set [1] (7 days at 25° C./60% RH), 98.1; in data set [1] (14 days at 25° C./60% RH), 96.4. The Observation result in data set [1] (0 days at 25° C./60% RH), in data set [1] (7 days at 25° C./60% RH) and in data set [1] (14 days at 25° C./60% RH) was “White solid” each time. Moreover, in data set [1], the “Physical/chemical stability and appearance on storage” value is “physically and chemically stable”.

With `CNc1nc(N)nc2c1ncn2[C@@H]1O[C@H](CO[P@@](=O)(N[C@@H](C)C(=O)OC(C)C)Oc2ccccc2)[C@@H](O)[C@@]1(C)F` [Sample 1-3], the HPLC purity in data set [1] (0 days at 25° C./60% RH) was determined as 99.7; in data set [1] (7 days at 25° C./60% RH), 99.6; in data set [1] (14 days at 25° C./60% RH) it was 99.4. Also, the Observation entry in data set [1] (0 days at 25° C./60% RH), in data set [1] (7 days at 25° C./60% RH) and in data set [1] (14 days at 25° C./60% RH) was “White solid” in each case.

As for `CNc1nc(N)nc2c1ncn2C1OC(COP(=O)(NC(C)C(=O)OC(C)C)Oc2ccccc2)C(O)C1(C)F.Cl` (stereo not drawn) [Sample 1-4], in data set [1], the “Hygroscopicity” value is recorded as “hygroscopic”; the “Physical/chemical stability and appearance on storage” value was “physically and chemically stable”. Also, in data set [1] (0 days at 25° C./60% RH), the HPLC purity is on record as 98.7 and the Observation result was “White solid”. Also, in data set [1] (7 days at 25° C./60% RH), the HPLC purity amounted to 98.8 and the Observation entry is “White solid”. In data set [1] (14 days at 25° C./60% RH), the HPLC purity is 98.6 and the Observation result is recorded as “White solid”.

As to `CNc1nc(N)nc2c1ncn2[C@@H]1O[C@H](CO[P@@](=O)(N[C@@H](C)C(=O)OC(C)C)Oc2ccccc2)[C@@H](O)[C@@]1(C)F` [Compound 5], the “Hygroscopicity” value in data set [1] (listed as HCl salt) is “more hydroscopic than the hemisulfate salt”.

As to `C[C@@]1(F)[C@H](O)[C@@H](CO)O[C@H]1n1cnc2c(=O)[nH]c(N)nc21` [Metabolite 1-7, 2-amino-9-((2R,3R,4R,5R)-3-fluoro-4-hydroxy-5-(hydroxymethyl)-3-methyltetrahydrofuran-2-yl)-1,9-dihydro-6H-purin-6-one], the AUC in data set [2] (50 mg) worked out at 285 ± 69.4 ng·h/mL; in data set [2] (100 mg), 663 ± 242 ng·h/mL; in data set [2] (200 mg), 1520 ± 497 ng·h/mL; in data set [2] (400 mg), 2340 ± 598 ng·h/mL; in data set [3] (setting [6]), 538 ± 103 ng·h/mL; in data set [3] (setting [8]) it was 1130 ± 273 ng·h/mL. For the same compound, the area under the curve (AUC) in data set [3] (setting [9]) stood at 1420 ± 221 ng·h/mL; in data set [3] (400 mg, Compound 2 400 mg), 2130 ± 120 ng·h/mL; in data set [3] (600 mg, Compound 2 600 mg), 2180 ± 116 ng·h/mL. The peak concentration (Cmax) in data set [2] (50 mg) amounted to 27.9 ± 5.62 ng/mL; in data set [2] (100 mg) it was 56.6 ± 14 ng/mL; in data set [2] (200 mg), 111 ± 38.8 ng/mL; in data set [2] (400 mg) it was 153 ± 49.4 ng/mL; in data set [3] (100 mg, Compound 2 100 mg), 50.2 ± 15.4 ng/mL; in data set [3] (setting [7]), 96.9 ± 38.9 ng/mL. Further, the highest concentration (Cmax) in data set [3] (setting [9]) came to 123 ± 16.6 ng/mL; in data set [3] (400 mg, Compound 2 400 mg) it was 160 ± 36.7 ng/mL; in data set [3] (600 mg, Compound 2 600 mg) it was 198 ± 19.3 ng/mL; in data set [4] (30 mg/kg), 42.5 ng/mL; in data set [4] (100 mg/kg), 131 ng/mL; in data set [4] (300 mg/kg) it was 93.6 ng/mL. Besides, in data set [5], the Cmax stood at 541 ng/mL. Besides, the Tmax in data set [2] (50 mg) is 3.5 h; in data set [3] (100 mg, Tmax), 6 h; in data set [3] (300 mg), 4.0 (3.0-6.0) h; in data set [3] (300 mg, Tmax), 6 h; in data set [4] (30 mg/kg), 12 to 24 h; in data set [4] (300 mg/kg), 4 to 24 h. Also, in data set [5], the Tmax lay within 6 to 8 h. For the same compound, the half-life is 7.07 ± 4.59 h in data set [2] (50 mg); 17.7 ± 14.7 h in data set [2] (100 mg); 15.9 ± 7.95 h in data set [2] (200 mg); 15.6 ± 6.37 h in data set [2] (400 mg); 8.4 ± 4.3 h in data set [3] (setting [6]); 8.1 ± 2.4 h in data set [3] (setting [8]). For the same compound, the half-life in data set [3] (400 mg, Compound 2 400 mg) was 11.6 ± 1.21 h; in data set [4] (30 mg/kg), 11.5 h; in data set [4] (100 mg/kg), 15 h; in data set [4] (300 mg/kg), 18.8 h; in data set [5], 15.3 h. For the same compound, the concentration at 24 h in data set [2] (50 mg) was 2.28 ± 0.95 ng/mL; in data set [2] (100 mg), 4.45 ± 1.87 ng/mL; in data set [2] (200 mg), 13.7 ± 5.09 ng/mL; in data set [2] (400 mg), 23.5 ± 6.31 ng/mL; in data set [3] (100 mg, Compound 2 100 mg) it was 3.6 ± 0.4 ng/mL; in data set [3] (setting [7]), 10.9 ± 3.51 ng/mL. The concentration at 24 h in data set [3] (setting [9]) was found to be 18 ± 8.83 ng/mL; in data set [3] (400 mg, Compound 2 400 mg), 22.5 ± 3.29 ng/mL; in data set [3] (600 mg, Compound 2 600 mg), 25.8 ± 4.08 ng/mL. Further, the AUC(0-t) in data set [4] (30 mg/kg) was found to be 1620 ng·h/mL; in data set [4] (100 mg/kg) it was 3030 ng·h/mL; in data set [4] (300 mg/kg) it was 3660 ng·h/mL; in data set [5] it was 9640 ng·h/mL.

Turning to `CNc1nc(N)nc2c1ncn2[C@@H]1O[C@H](CO[P@@](=O)(N[C@@H](C)C(=O)OC(C)C)Oc2ccccc2)[C@@H](O)[C@@]1(C)F` [Sample 1-1], the HPLC purity in data set [1] (0 days at 25° C./60% RH) came out at 98.6; in data set [1] (7 days at 25° C./60% RH) it was 98.7; in data set [1] (14 days at 25° C./60% RH), 98.5. Besides, the Observation entry in data set [1] (0 days at 25° C./60% RH), in data set [1] (7 days at 25° C./60% RH) and in data set [1] (14 days at 25° C./60% RH) was “White solid” throughout. In addition, in data set [1], the “Physical/chemical stability and appearance on storage” value is “stable”.

With `CNc1nc(N)nc2c1ncn2[C@@H]1O[C@H](CO[P@@](=O)(N[C@@H](C)C(=O)OC(C)C)Oc2ccccc2)[C@@H](O)[C@@]1(C)F` [Sample 1-2], the HPLC purity in data set [1] (0 days at 25° C./60% RH) is recorded as 99.1; in data set [1] (7 days at 25° C./60% RH), 99.2; in data set [1] (14 days at 25° C./60% RH), 99.0. For the same compound, the Observation result in data set [1] (0 days at 25° C./60% RH), in data set [1] (7 days at 25° C./60% RH) and in data set [1] (14 days at 25° C./60% RH) was “White solid” each time. Also, in data set [1], the “Physical/chemical stability and appearance on storage” value was “stable”.

Take `CNc1nc(N)nc2c1ncn2[C@@H]1O[C@H](CO[P@@](=O)(N[C@@H](C)C(=O)OC(C)C)Oc2ccccc2)[C@@H](O)[C@@]1(C)F` [Compound 3, mono-sulfate salt of isopropyl((S)-(((2R,3R,4R,5R)-5-(2-amino-6-(methylamino)-9H-purin-9-yl)-4-fluoro-3-hydroxy-4-methyltetrahydrofuran-2-yl)methoxy)(phenoxy)phosphoryl)-L-alaninate]: the “Physical/chemical stability and appearance on storage” value in data set [1] was “unstable; also recorded: not physically stable”.

`CNc1nc(N)nc2c1ncn2C1OC(COP(=O)(NC(C)C(=O)OC(C)C)Oc2ccccc2)C(O)C1(C)F.O=S(=O)(O)O` (stereo not drawn) [Sample 1-5]: the figures for the HPLC purity in data set [1] (0 days at 25° C./60% RH) and in data set [1] (7 days at 25° C./60% RH) were 98.4 and 55.7, respectively. Also, the Observation result in data set [1] (0 days at 25° C./60% RH) is “White solid”; in data set [1] (7 days at 25° C./60% RH) it was “Sticky white”; in data set [1] (14 days at 25° C./60% RH), “Sticky gum”. The “Physical/chemical stability and appearance on storage” value in data set [1] is “physically unstable”.

These data come from patent US20210087217A1, “NUCLEOTIDE HEMI-SULFATE SALT FOR THE TREATMENT OF HEPATITIS C VIRUS” (Atea Pharmaceuticals, Inc., priority 2017, published 2021).
